Assay results as given in patent US12594252B2, “Methods for treating inflammatory skin conditions” (JOURNEY MEDICAL CORPORATION, priority 2018, dated 2026).

Tested on: subjects diagnosed with papulopustular rosacea
Test: 16-week, multi-center, randomized, double-blind, parallel-group, controlled efficacy study
Format: in vivo, human
Details: minocycline about 40 mg, equivalent doses
Procedure: The pharmaceutical compositions as shown in Example 1 and 3 were studied in a 16-week, multi-center, randomized, double-blind, parallel-group, controlled study to evaluate efficacy. Subjects, who were at least 18 years old, diagnosed with papulopustular rosacea were randomized to 4 different treatment groups (50 subjects each in groups 1 to 4). Each subject was allocated to one of the treatment groups, receiving a single dose of Example 1 (Group 1) and Example 3 (Group 2): […]®-40 mg doxycycline capsules (Group 3); and placebo capsules (Group 4), orally for 16 weeks. Subjects' visits were scheduled at screening, baseline (day 1), and weeks 4, 8, 12 and 16. Clinical assessments of efficacy was conducted based on, proportion of subjects with IGA 'treatment success (reduction in IGA grade)' and reduction in total inflammatory lesion count (sum of papules, pustules, and nodules) from baseline (day 1) to weeks 4, 8, 12 and 16. The results are shown in following table 9 (IGA 'treatment success), table 10 (total inflammatory lesion change), table 11 (P values) and FIG. 6, FIG. 7, FIG. 8.

Structure (SMILES): CN(C)c1ccc(O)c2c1C[C@H]1C[C@H]3[C@H](N(C)C)C(O)=C(C(N)=O)C(=O)[C@@]3(O)C(O)=C1C2=O [minocycline, [4S-(4α,4aα,5aα,12aα)]-4,7-Bis(dimethylamino)-1,4,4a,5,5a,6,11,12a-octahydro-3,10,12,12a-tetrahydroxy-1,11-dioxo-2-naphthacenecarboxamide]
- % reduction in lesion counts, more as compared to doxycycline (40 mg): about 100%
